Structures can show the parent of a compound that is named as a salt.
test system: BACE1 proteins; experiment: Amount of expression of BACE1 proteins in brain nerve cells (Western blot); type: cell-based, human; conditions: SH-SY5Y cells, treated 24 hours at 0.001, 0.01 and 0.1 μM, actin control
Experimental: As brain nerve cells, human neuroblastoma cells SH-SY5Y were used. […] The SH-SY5Y cells were plated at 5×10^5 cells/well into a 6-well plate. […] Then, the amount of expression of BACE1 proteins was determined by Western blot. Actin was used throughout as a control.

Compound	amount of expression of BACE1 proteins
CC(C)=CCC/C(C)=C/CC/C(C)=C/CO [farnesol]	decreased at 0.01 μM and 0.1 μM

same assay, conditions: SH-SY5Y cells, treated 24 hours at 0.625, 1.25, 2.5, 5 and 10 μM, actin control

Compound	amount of expression of BACE1 proteins
COC(=O)Nc1nc2cc(Sc3ccccc3)ccc2[nH]1 [fenbendazole]	decreased at 0.625 μM to 10 μM
COC(=O)Nc1nc2cc(C(=O)c3ccccc3)ccc2[nH]1 [mebendazole]	decreased at 0.625 μM to 10 μM

test system: BACE1 promoter; experiment: BACE1 promoter activity, BACE1 promoter-luciferase vector, Dual-Luciferase assay; type: cell-based; conditions: Homo sapiens, SH-SY5Y, 24 h, read-out: decrease of BACE1 promoter activity
Experimental: A BACE1 promoter-luciferase vector was transfected to brain nerve cells (SH-SY5Y). […] A change in a BACE1 promoter activity was measured using a Dual-Luciferase assay kit.

Compound	inhibition at 10 µM [%]
COc1cc2c(c(OC)c1OC)-c1ccc(OC)c(=O)cc1[C@@H](NC(C)=O)CC2 [colchicine]	≥ 50
COc1ccc2c(c1)[nH]c1c(C)nccc12 [harmine hydrochloride]	≥ 50
C=C(NC(=O)C(=C)NC(=O)c1csc(C2=N[C@@H]3c4csc(n4)[C@H]4NC(=O)c5csc(n5)[C@H]([C@](C)(O)[C@@H](C)O)NC(=O)[C@H]5CSC(=N5)/C(=C/C)NC(=O)[C@H]([C@@H](C)O)NC(=O)c5csc(n5)[C@]3(CC2)NC(=O)[C@H](C)NC(=O)C(=C)NC(=O)[C@H](C)NC(=O)[C@H]([C@@H](C)CC)N[C@@H]2C=Cc3c([C@H](C)O)cc(nc3[C@H]2O)C(=O)O[C@@H]4C)n1)C(N)=O [thiostrepton]	≥ 50

same assay, conditions: Homo sapiens; SH-SY5Y transfected with BACE1 promoter-luciferase vector, 10 μM for 24 hours; read-out: decrease of BACE1 promoter activity

Compound	inhibition at 10 µM [%]
Clc1cnccn1 [2-chloropyrazine]	≥ 50
Cn1cnc([N+](=O)[O-])c1Sc1ncnc2nc[nH]c12 [azathioprine]	≥ 50
O=C1Nc2ccc(Cl)cc2[C@@](C#CC2CC2)(C(F)(F)F)O1 [efavirenz]	≥ 50
CCN(CC)C(=O)/C(C#N)=C/c1cc(O)c(O)c([N+](=O)[O-])c1 [entacapone]	≥ 50
CC(C)=CCC/C(C)=C/CC/C(C)=C/CO [farnesol]	≥ 50
COC(=O)Nc1nc2cc(Sc3ccccc3)ccc2[nH]1 [fenbendazole]	≥ 50
CC1(C)O[C@@H]2C[C@H]3[C@@H]4C[C@H](F)C5=CC(=O)C=C[C@]5(C)[C@H]4[C@@H](O)C[C@]3(C)[C@]2(C(=O)CO)O1 [flunisolide]	≥ 50
CC[C@H](c1ccc(O)cc1)[C@@H](CC)c1ccc(O)cc1 [hexestrol]	≥ 50
COC(=O)Nc1nc2cc(C(=O)c3ccccc3)ccc2[nH]1 [mebendazole]	≥ 50
CCN(CCCCOC(=O)c1ccc(OC)c(OC)c1)C(C)Cc1ccc(OC)cc1 (stereo not drawn) [mebeverine hydrochloride]	≥ 50
CC[C@@]1([C@@H]2O[C@@H]([C@H]3O[C@@](O)(CO)[C@H](C)C[C@@H]3C)C[C@@H]2C)CC[C@H]([C@]2(C)CC[C@]3(C[C@H](O)[C@@H](C)[C@@H]([C@@H](C)[C@@H](OC)[C@H](C)C(=O)O)O3)O2)O1 [monensin sodium salt]	≥ 50
CCCN(CCC)S(=O)(=O)c1ccc(C(=O)O)cc1 [probenecid]	≥ 50
O=C(c1ccc(OCCN2CCCCC2)cc1)c1c(-c2ccc(O)cc2)sc2cc(O)ccc12 [raloxifene hydrochloride]	≥ 50
Nc1ccc(S(=O)(=O)Nc2cnc3ccccc3n2)cc1 [sulfaquinoxaline sodium salt]	≥ 50
CC[C@@]1(O)C(=O)OCc2c1cc1n(c2=O)Cc2cc3c(CN(C)C)c(O)ccc3nc2-1 [topotecan]	≥ 50
NC1CCN(c2nc3c(cc2F)c(=O)c(C(=O)O)cn3-c2ccc(F)cc2F)C1 (stereo not drawn) [tosufloxacin hydrochloride]	≥ 50
COc1cc(C(=O)NCc2ccc(OCCN(C)C)cc2)cc(OC)c1OC [trimethobenzamide hydrochloride]	≥ 50
CCCOc1ccccc1-c1nc2nn[nH]c2c(=O)[nH]1 [zaprinast]	≥ 50

Source: patent publication US9549942B2, “Composition for preventing or treating degenerative brain diseases including compound downregulating expression of BACE1 proteins” (RESEARCH & BUSINESS FOUNDATION SUNGKYUNKWAN UNIVERSITY, priority 2013, dated 2017)
